# Test results as given in patent publication US8716475B2, “2-aminopyrimidine modulators of the histamine H4 receptor” (Janssen Pharmaceutica NV, priority 2007, dated 2014).
# Structures can show the parent of a compound that is named as a salt.
# Target: T1, human H4 receptor (Homo sapiens, UniProt Q9H3N8)
# T1 construct: expressed in transfected cells
# Test: Binding Assay on Recombinant Human Histamine H4 Receptor
# Details: Table 1; [3H] histamine competition binding, membranes of SK-N-MC cells transfected with human H4 receptor; average of results
# Procedure, shortened: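 Radioligand binding used membranes from SK-N-MC cells stably or transiently expressing human H4, prepared in 50 mM Tris/5 mM EDTA. Nonspecific binding was defined with 100 μM histamine. Bound radioactivity was counted after filtration on PEI-treated GF/C filters, and ">" values are the highest concentration tested.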
row,Compound,Ki [nM]
1,"CCc1cc(N2C[C@H]3CCN[C@H]3C2)nc(N)n1 [Example 37, (R,R)-(4-Ethyl-6-hexahydro-pyrrolo[3,4-b]pyrrol-5-yl)-pyrimidin-2-ylamine]",27
2,"Nc1nc(C2CCCC2)cc(N2CC3CCNC3C2)n1 (stereo not drawn) [Example 6, 4-Cyclopentyl-6-(cis-hexahydro-pyrrolo[3,4-b]pyrrol-5-yl)-pyrimidin-2-ylamine]",6
3,"Nc1nc(C2CCC2)cc(N2CCNCC2)n1 [Example 43, 4-Cyclobutyl-6-piperazin-1-yl-pyrimidin-2-ylamine]",2
4,"CC(C)c1cc(N2CC3CCNC3C2)nc(N)n1 (stereo not drawn) [Example 16, 4-(cis-Hexahydro-pyrrolo[3,4-b]pyrrol-5-yl)-6-isopropyl-pyrimidin-2-ylamine]",65
5,"Cc1nc(N)nc(N2CC[C@@H](N)C2)c1C [Example 27, (R)-4-(3-Amino-pyrrolidin-1-yl)-5,6-dimethyl-pyrimidin-2-ylamine]",> 10000
6,"CN[C@@H]1CCN(c2nc(N)nc3c2CCC3)C1 [Example 75, (R)-4-(3-Methylamino-pyrrolidin-1-yl)-6,7-dihydro-5H-cyclopentapyrimidin-2-ylamine]",159
7,"Nc1nc(C2CCCC2)cc(N2CCNCC2)n1 [Example 1, 4-Cyclopentyl-6-piperazin-1-yl-pyrimidin-2-ylamine]",1
8,"Nc1nc2c(c(N3CC[C@@H](N)C3)n1)CCCC2 [Example 68, (R)-4-(3-Amino-pyrrolidin-1-yl)-5,6,7,8-tetrahydro-quinazolin-2-ylamine]",115
9,"CN[C@@H]1CCN(c2cc(C3CCCCC3)nc(N)n2)C1 [Example 53, (R)-(4-Cyclohexyl-6-3-methylamino-pyrrolidin-1-yl)-pyrimidin-2-ylamine]",3
10,"Nc1nc(Cc2ccccc2)cc(N2C[C@H]3CCCN[C@H]3C2)n1 [Example 65, (R,R)-4-Benzyl-6-(octahydro-pyrrolo[3,4-b]pyridin-6-yl)-pyrimidin-2-ylamine]",47
11,"Nc1nc2c(c(N3C[C@H]4CCN[C@H]4C3)n1)CCCC2 [Example 70, (R,R)-4-(Hexahydro-pyrrolo[3,4-b]pyrrol-5-yl)-5,6,7,8-tetrahydro-quinazolin-2-ylamine]",404

# Same assay, conditions: Table 2, data marked with an asterisk (*): obtained by the cell harvester method; [3H] histamine competition binding, SK-N-MC membranes
row,Ki [nM],Compound
1,20,"Nc1nc(C2Cc3ccccc3C2)cc(N2CC3CCCNC3C2)n1 (centres unmarked) [Example 251, 4-Indan-2-yl-6-(octahydro-pyrrolo[3,4-b]pyridin-6-yl)-pyrimidin-2-ylamine]"
2,412,"CN(CCN)c1cc(C(C)(C)C)nc(N)n1 [Example 131, N^4-(2-Amino-ethyl)-6-tert-butyl-N^4-methyl-pyrimidine-2,4-diamine]"

row,Compound,Ki [nM]
1,"CC(C)(C)c1cc(N2C[C@H]3CNC[C@H]3C2)nc(N)n1 [Example 132, 4-tert-Butyl-6-(cis-hexahydro-pyrrolo[3,4-c]pyrrol-2-yl)-pyrimidin-2-ylamine]",356

# Same assay, conditions: Table 2; [3H] histamine competition binding, membranes of SK-N-MC cells transfected with human H4 receptor; average of results
row,Compound,Ki [nM]
1,"Nc1nc(Cc2cccs2)cc(N2CCNCC2)n1 [Example 215, 4-piperazin-1-yl-6-thiophen-2-ylmethyl-pyrimidin-2-ylamine]",6
2,"CCCCc1cc(N2C[C@H]3CNC[C@H]3C2)nc(N)n1 [Example 140, Butyl-6-(cis-hexahydro-pyrrolo[3,4-c]pyrrol-2-yl)-pyrimidin-2-ylamine]",397
3,"Nc1nc(C2CCCC2)cc(N2CCC3(CCCN3)C2)n1 (single isomer, unassigned) [Example 257, 4-Cyclopentyl-6-(cis-1,7-diaza-spiro[4.4]non-7-yl)-pyrimidin-2-ylamine]",31
4,"CC(C)c1cc(N2CCC3(CCCN3)C2)nc(N)n1 (centres unmarked) [Example 91, 4-(1,7-Diaza-spiro[4.4]non-7-yl)-6-isopropyl-pyrimidin-2-ylamine]",84
5,"Nc1nc(Cc2ccsc2)cc(N2CC3CCCNC3C2)n1 (stereo not drawn) [Example 211, 4-(cis-Octahydro-pyrrolo[3,4-b]pyridin-6-yl)-6-thiophen-3-ylmethyl-pyrimidin-2-ylamine]",4
6,"CCCc1cc(N2C[C@H]3CN(C)C[C@H]3C2)nc(N)n1 [Example 145, 4-(cis-5-Methyl-hexahydro-pyrrolo[3,4-c]pyrrol-2-yl)-6-propyl-pyrimidin-2-ylamine]",117
7,"Nc1nc(Cc2cccs2)cc(N2CC3CCCNC3C2)n1 (stereo not drawn) [Example 217, 4-(cis-Octahydro-pyrrolo[3,4-b]pyridin-6-yl)-6-thiophen-2-ylmethyl-pyrimidin-2-ylamine]",9
8,"Nc1nc(Cc2ccc(Cl)cc2)cc(N2C[C@H]3CNC[C@H]3C2)n1 [Example 237, 4-(4-Chloro-benzyl)-6-(cis-hexahydro-pyrrolo[3,4-c]pyrrol-2-yl)-pyrimidin-2-ylamine]",257
9,"Cc1nc(N)nc(N2CC3CCCNC3C2)c1F (centres unmarked) [Example 200, 5-Fluoro-4-methyl-6-(octahydro-pyrrolo[3,4-b]pyridin-6-yl)-pyrimidin-2-ylamine]",235
10,"Nc1nc(CCC(F)(F)F)cc(N2CCNCC2)n1 [Example 182, 4-piperazin-1-yl-6-(3,3,3-trifluoro-propyl)-pyrimidin-2-ylamine]",20
11,"Nc1nc(CC2CCCO2)cc(N2CC3CCCNC3C2)n1 (stereo not drawn) [Example 231, 4-(cis-Octahydro-pyrrolo[3,4-b]pyridin-6-yl)-6-(tetrahydro-furan-2-ylmethyl)-pyrimidin-2-ylamine]",59
12,"COc1c(C2CCCC2)nc(N)nc1N1C[C@H]2CCCN[C@H]2C1 [Example 188, (R,R)-4-Cyclopentyl-5-methoxy-6-(octahydro-pyrrolo[3,4-b]pyridin-6-yl)-pyrimidin-2-ylamine]",18
13,"COc1c(NCCN)nc(N)nc1C1CCCC1 [Example 116, N^4-(2-Amino-ethyl)-6-cyclopentyl-5-methoxy-pyrimidine-2,4-diamine]",64
14,"CN1C[C@@H]2CN(c3nc(N)nc4c3COCC4)C[C@@H]2C1 [Example 254, 4-(cis-5-Methyl-hexahydro-pyrrolo[3,4-c]pyrrol-2-yl)-7,8-dihydro-5H-pyranol-[4,3-d]pyrimidin-2-ylamine]",> 10000
15,"NCCNc1cc(Cc2cccs2)nc(N)n1 [Example 218, N^4-(2-Amino-ethyl)-6-thiophen-2-ylmethyl-pyrimidine-2,4-diamine]",20

# More lines, now with the values ahead:
row,Ki [nM],Compound
1,23,"CC(C)c1cc(N2CC[C@H](N)C2)nc(N)n1 [Example 126, (S)-4-(3-Amino-pyrrolidin-1-yl)-6-isopropyl-pyrimidin-2-ylamine]"
2,22,"Nc1nc(C2CC2)cc(N2CC(N)C2)n1 [Example 122, 4-(3-Amino-azetidin-1-yl)-6-cyclopropyl-pyrimidin-2-ylamine]"
3,138,"CC1(c2cc(N3CC[C@@H](N)C3)nc(N)n2)CCOCC1 [Example 174, (R)-4-(3-Amino-pyrrolidin-1-yl)-6-(4-methyl-tetrahydro-pyran-4-yl)-pyrimidin-2-ylamine]"
4,106,"Nc1nc(C2Cc3ccccc3O2)cc(N2CCNCC2)n1 (centres unmarked) [Example 171, 4-(2,3-Dihydro-benzofuran-2-yl)-6-piperazin-1-yl-pyrimidin-2-ylamine]"
5,16,"CN[C@@H]1CCN(c2cc(CCC(F)(F)F)nc(N)n2)C1 [Example 183, (R)-4-(3-Methylamino-pyrrolidin-1-yl)-6-(3,3,3-trifluoro-propyl)-pyrimidin-2-ylamine]"
6,34,"CN[C@@H]1CCN(c2cc(C3CC3c3ccccc3)nc(N)n2)C1 (single isomer, unassigned) [Example 255]"
7,14,"CC(C)c1cc(N2CC(N)C2)nc(N)n1 [Example 90, 4-(3-Amino-azetidin-1-yl)-6-isopropyl-pyrimidin-2-ylamine]"
8,203,"NCCCNc1cc(C2CCOC2)nc(N)n1 (centres unmarked) [Example 196, N^4-(3-Amino-propyl)-6-(tetrahydro-furan-3-yl)-pyrimidine-2,4-diamine]"
9,10,"CN[C@@H]1CCN(c2nc(N)nc(C3CCCC3)c2OC)C1 [Example 187, (R)-4-Cyclopentyl-5-methoxy-6-(3-methylamino-pyrrolidin-1-yl)-pyrimidin-2-ylamine]"
10,32,"CC(C)OCc1cc(N2CCN(C)CC2)nc(N)n1 [Example 246, 4-Isopropoxymethyl-6-(4-methyl-piperazin-1-yl)-pyrimidin-2-ylamine]"
11,42,"NCCNc1cc(C2CC2c2ccccc2)nc(N)n1 (stereo not drawn) [Example 159, N^4-(2-Amino-ethyl)-6-(trans-2-phenyl-cyclopropyl)-pyrimidine-2,4-diamine]"
12,82,"CN[C@@H]1CCN(c2cc(C3(C)CCOCC3)nc(N)n2)C1 [Example 155, (R)-4-(3-Methylamino-pyrrolidin-1-yl)-6-(4-methyl-tetrahydro-pyran-4-yl)-pyrimidin-2-ylamine]"
13,8,"CN[C@@H]1CCN(c2cc(Cc3ccsc3)nc(N)n2)C1 [Example 208, (R)-4-(3-Methylamino-pyrrolidin-1-yl)-6-thiophen-3-ylmethyl-pyrimidin-2-ylamine]"
14,6,"CN1CCN(c2cc(CCc3ccccc3)nc(N)n2)CC1 [Example 179, 4-(4-Methyl-piperazin-1-yl)-6-phenethyl-pyrimidin-2-ylamine]"
15,25,"Nc1nc(CC2CCCO2)cc(N2CCNCC2)n1 (centres unmarked) [Example 230, 4-piperazin-1-yl-6-(tetrahydro-furan-2-ylmethyl)-pyrimidin-2-ylamine]"
16,4,"Nc1nc(C2CC2)cc(N2CC[C@@H](N)C2)n1 [Example 123, (R)-4-(3-Amino-pyrrolidin-1-yl)-6-cyclopropyl-pyrimidin-2-ylamine]"
17,91,"CN[C@@H]1CCN(c2cc(CC3CCCO3)nc(N)n2)C1 (stereo partly drawn) [Example 228, (R)-4-(3-Methylamino-pyrrolidin-1-yl)-6-(tetrahydro-furan-2-ylmethyl)-pyrimidin-2-ylamine]"
18,24,"Nc1nc(C2Cc3ccccc3C2)cc(N2CC(N)C2)n1 [Example 161, 4-(3-Amino-azetidin-1-yl)-6-indan-2-yl-pyrimidin-2-ylamine salt]"
